# In patent US12617779B2, “Self degradation-type CDK9 inhibitor prodrug and liposome encapsulating same” (Sumitomo Pharma Co., Ltd., priority 2021, dated 2026):
# Assays:
# [1] = Evaluation of conversion rate to active form in human plasma (Experimental Example 3); format: in vitro ADME; details: 0.2 μmol/L, 37° C.; for Residual rate (%) of test compound: Human plasma
# Method in brief: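 LC-MS/MS (positive ESI) followed the parent and released Alvocidib during 37° C incubation of 0.2 μmol/L compound in human or BALB/c mouse plasma, sampled at 0/30/60 or 0/60/120 min. Remaining parent is expressed versus the 0-min peak; conversion versus a 0.2 μmol/L Alvocidib standard.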
# [2] = Evaluation of conversion rate to active form in buffer solution (Experimental Example 1); format: physicochemical; details: for Production rate of Alvocidib / Residual rate: 37° C., 25 umol/L in buffer solution
# Method in brief: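 Conversion to Alvocidib was followed by HPLC over 3 hours at 37° C, with test compounds at 25 umol/L in 50 mM citrate or phosphate buffers spanning pH 5.0–7.4.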
structure (smiles),measurement,setting,value
"CCCN(C[C@H]1CCCCN1)C(=O)Oc1cc(O)c2c(=O)cc(-c3ccccc3Cl)oc2c1[C@H]1CCN(C)C[C@H]1O [Example 6, 2-(2-chlorophenyl)-5-hydroxy-8-[(3S,4R)-3-hydroxy-1-methylpiperidin-4-yl]-4-oxo-4H-1-benzopyran-7-yl {[(2R)-piperidin-2-yl]methyl}propylcarbamate]",Residual rate (%) of test compound,[1]; 0 min,100%
same,Residual rate (%) of test compound,[1]; 30 min,3%
same,Residual rate (%) of test compound,[1]; 60 min,2%
same,Conversion to Alvocidib in human plasma,"[1]; human plasma, Examples up to 60 minutes, Comparative Examples up to 120 minutes",proceeded rapidly
same,Production rate of Alvocidib,"[2]; pH5.0, 0 hr",0.5%
same,Residual rate,"[2]; pH5.0, 0 hr",99.3%
same,Stability in buffer solution at pH 5,"[2]; pH 5, 37° C., up to 2 or 3 hours",stable
same,Production rate of Alvocidib,"[2]; pH5.0, 0.5 hr",0.9%
same,Residual rate,"[2]; pH5.0, 0.5 hr",99.1%
same,Production rate of Alvocidib,"[2]; pH5.0, 1 hr",1.3%
same,Residual rate,"[2]; pH5.0, 1 hr",98.7%
same,Production rate of Alvocidib,"[2]; pH5.0, 2 hr",2.0%
same,Residual rate,"[2]; pH5.0, 2 hr",97.8%
same,Production rate of Alvocidib,"[2]; pH5.0, 3 hr",2.6%
same,Residual rate,"[2]; pH5.0, 3 hr",96.8%
same,Production rate of Alvocidib,"[2]; pH5.5, 0 hr",0.5%
same,Residual rate,"[2]; pH5.5, 0 hr",99.5%
same,Production rate of Alvocidib,"[2]; pH5.5, 0.5 hr",1.6%
same,Residual rate,"[2]; pH5.5, 0.5 hr",98.1%
same,Production rate of Alvocidib,"[2]; pH5.5, 1 hr",2.5%
same,Residual rate,"[2]; pH5.5, 1 hr",97.0%
same,Production rate of Alvocidib,"[2]; pH5.5, 2 hr",4.3%
same,Residual rate,"[2]; pH5.5, 2 hr",94.2%
same,Production rate of Alvocidib,"[2]; pH5.5, 3 hr",6.2%
same,Residual rate,"[2]; pH5.5, 3 hr",91.9%
same,Production rate of Alvocidib,"[2]; pH6.0, 0 hr",0.6%
same,Residual rate,"[2]; pH6.0, 0 hr",99.4%
same,Production rate of Alvocidib,"[2]; pH6.0, 0.5 hr",4.0%
same,Residual rate,"[2]; pH6.0, 0.5 hr",94.8%
same,Production rate of Alvocidib,"[2]; pH6.0, 1 hr",7.1%
same,Residual rate,"[2]; pH6.0, 1 hr",90.7%
same,Production rate of Alvocidib,"[2]; pH6.0, 2 hr",13.2%
same,Residual rate,"[2]; pH6.0, 2 hr",82.5%
same,Production rate of Alvocidib,"[2]; pH6.0, 3 hr",18.6%
same,Residual rate,"[2]; pH6.0, 3 hr",75.2%
same,Production rate of Alvocidib,"[2]; pH6.5, 0 hr",0.6%
same,Residual rate,"[2]; pH6.5, 0 hr",99.4%
same,Production rate of Alvocidib,"[2]; pH6.5, 0.5 hr",10.1%
same,Residual rate,"[2]; pH6.5, 0.5 hr",86.6%
same,Production rate of Alvocidib,"[2]; pH6.5, 1 hr",18.6%
same,Residual rate,"[2]; pH6.5, 1 hr",75.3%
same,Production rate of Alvocidib,"[2]; pH6.5, 2 hr",31.9%
same,Residual rate,"[2]; pH6.5, 2 hr",56.9%
same,Production rate of Alvocidib,"[2]; pH6.5, 3 hr",42.8%
same,Residual rate,"[2]; pH6.5, 3 hr",42.3%
same,Production rate of Alvocidib,"[2]; pH7.0, 0 hr",0.7%
same,Residual rate,"[2]; pH7.0, 0 hr",99.3%
same,Production rate of Alvocidib,"[2]; pH7.0, 0.5 hr",27.0%
same,Residual rate,"[2]; pH7.0, 0.5 hr",63.7%
same,Production rate of Alvocidib,"[2]; pH7.0, 1 hr",44.4%
same,Residual rate,"[2]; pH7.0, 1 hr",40.4%
same,Production rate of Alvocidib,"[2]; pH7.0, 2 hr",62.8%
same,Residual rate,"[2]; pH7.0, 2 hr",16.1%
same,Production rate of Alvocidib,"[2]; pH7.0, 3 hr",69.8%
same,Residual rate,"[2]; pH7.0, 3 hr",6.8%
same,Production rate of Alvocidib,"[2]; pH7.4, 0 hr",0.9%
same,Residual rate,"[2]; pH7.4, 0 hr",99.1%
same,Conversion to Alvocidib at pH 7.4,"[2]; pH 7.4, 37° C., up to 3 hours",rapidly converted to Alvocidib
same,Production rate of Alvocidib,"[2]; pH7.4, 0.5 hr",47.8%
same,Residual rate,"[2]; pH7.4, 0.5 hr",36.3%
same,Production rate of Alvocidib,"[2]; pH7.4, 1 hr",65.7%
same,Residual rate,"[2]; pH7.4, 1 hr",12.7%
same,Production rate of Alvocidib,"[2]; pH7.4, 2 hr",73.6%
same,Residual rate,"[2]; pH7.4, 2 hr",2.7%
same,Production rate of Alvocidib,"[2]; pH7.4, 3 hr",75.3%
same,Residual rate,"[2]; pH7.4, 3 hr",0.7%
